Source: US11186598B2, “Radioactive phospholipid metal chelates for cancer imaging and therapy” (Wisconsin Alumni Research Foundation, priority 2016, dated 2021)

System: flank U87 tumors
Assay: MRI comparison of Gd-DO3A-404 and DOTAREM in mice with flank U87 tumors (Example 5)
Format: in vivo, mouse
Conditions: as compared to Gd-DO3A-404
Excerpt: To verify that uptake and retention was due to targeting of the “404” moiety, we directly compared the uptake of Gd-DO3A-404 with that of DOTA-chelated Gd^3+ (DOTAREM®) in an identical tumor model (mice with flank U87 tumors) and imaging scenario, using the same number of moles of each.
We the quantified the tumor to muscle ratio and compare it to baseline scans.

CNC[C@H](O)[C@@H](O)[C@H](O)[C@H](O)CO.O=C([O-])CN1CCN(CC(=O)[O-])CCN(CC(=O)O)CCN(CC(=O)[O-])CC1.[Gd+3] [DOTAREM®]
tumor to muscle ratio compared to baseline scans (uptake): less striking, and significant only at a couple of early time points
